These results are taken from ChEMBL document CHEMBL5625178, “The topoisomerase II β -kinase associated with HIV-1 is a potential target for pyridine-bischalcones' anti-HIV-1 activity” (Eur J Med Chem, 2023).

Activity calls are given as the source filed them. No cut-off for these calls is given here.

A short description of data set [1]: Cytotoxicity against human SUP-T1 cells assessed as reduction in cell viability incubated for 16 hrs by MTT assay. It counts as toxicity, cell-based. (Tetrazolium dyes change colour on reduction, which living cells bring about.)
The subject of data set [2] is Human immunodeficiency virus 1. Nature of the data set: (§1) Inhibition of HIV-1 topoisomerase II beta kinase phosphorylation in the presence of […][gamma 32P]-ATP incubated for 30 mins by liquid scintillation counter analysis. The following applies: dose 0.25-600 pM.
Data set [3] in a line: as §1. On the set-up: species or system Human immunodeficiency virus 1.
The test system of a further data set is SUP-T1. The data set can be described thus: Inhibition of Topoisomerase II beta serine phosphorylation in human SUP-T1 cells infected with HIV1 93IN101 by Western blot analysis. It counts as cell-based. The following applies: dose 5-50 nM.
Data set [4] relates to Human immunodeficiency virus 1. Nature of the data set: Antiviral activity against HIV1 93IN101 infected in human SUP-T1 cells assessed as suppression of proviral DNA synthesis at IC50 concentration incubated for 5 hrs by PCR analysis. Type of data set: functional, organism-based.
For data set [5], the system named is Human immunodeficiency virus 1. Nature of the data set: Antiviral activity against HIV1 infected in human SUP-T1 cells assessed as inhibition of viral replication incubated for 5 hrs by sandwich ELISA method. It counts as functional, organism-based. On the technique in general: ELISA stands for enzyme-linked immunosorbent assay.

As to `c1ccc(-c2cccnc2)cc1`, the CC50 (commonly the concentration at which the toxic effect on the cells reaches its halfway point) at 16 h in data set [1] was found to be 1500 nM. In data set [2], the inhibition entry was “Dose-Dependent Effect”.
Take `C[n+]1cccc(/C=C2\CCC/C(=C\c3ccc[n+](C)c3)C2=O)c1`: the 50% cytotoxic concentration (CC50) at 16 h in data set [1] stood at 2120 nM. The half-maximal inhibitory concentration (IC50) (commonly the concentration that gives 50% inhibition) in data set [3] was 0.1 nM. In addition, the inhibition result with SUP-T1 is “Dose-Dependent Effect”. The result in data set [4] was Active. The Activity entry in data set [5] was “Dose-Dependent Effect”.
Consider `Cc1cn([C@H]2C[C@H](N=[N+]=[N-])[C@@H](CO)O2)c(=O)[nH]c1=O`, for which, in data set [5], the Activity result is “Dose-Dependent Effect”.
As for `O=C1/C(=C/c2cccnc2)CCC/C1=C\c1cccnc1`, in data set [1], the cytotoxic concentration (CC50) at 16 h was 960 nM. The concentration for half-maximal inhibition (IC50) in data set [3] turned out to be 0.32 nM. Also, in data set [5], the Activity result is “Dose-Dependent Effect”.
On the same counts, the results for `O=C1/C(=C/c2ccccn2)CCC/C1=C\c1ccccn1` are 920 nM, 0.55 nM and “Dose-Dependent Effect”.
As for `O=C1/C(=C/c2ccncc2)CCC/C1=C\c1ccncc1`, the CC50 at 16 h in data set [1] is 820 nM. Besides, the IC50 in data set [3] stood at 0.44 nM. For the same compound, in data set [2], the inhibition entry was “Dose-Dependent Effect”. Further, the Activity entry in data set [5] was “Dose-Dependent Effect”.
Consider `C[n+]1ccc(/C=C2\CCC/C(=C\c3cc[n+](C)cc3)C2=O)cc1`, for which, in data set [1], the 50% cytotoxic concentration (CC50) at 16 h is 2020 nM. Further, the IC50 in data set [3] amounted to 0.15 nM. In the data set on SUP-T1, the inhibition result was “Dose-Dependent Effect”. For the same compound, the outcome in data set [4] was Active. Moreover, the Activity result in data set [5] was “Dose-Dependent Effect”.
For `C[n+]1ccccc1/C=C1\CCC/C(=C\c2cccc[n+]2C)C1=O`, in data set [1], the cytotoxic concentration (CC50) at 16 h worked out at 2040 nM. For the same compound, in data set [3], the IC50 worked out at 0.14 nM. Moreover, the inhibition entry in the data set on SUP-T1 is “Dose-Dependent Effect”. Besides, the result in data set [4] was Active. Moreover, in data set [5], the Activity result is “Dose-Dependent Effect”.
